Measurements from patent US7674801B2 (AstraZeneca AB, priority 2006, dated 2010).
Converted amounts (≈) assume the structure as drawn.

What was measured:
[1] = test system: Streptococcus pneumoniae; assay: Bacterial susceptibility testing in liquid media (MIC); format: cell-based; details: 37° C., 24 hrs
Description: Compounds were tested for antimicrobial activity by susceptibility testing in liquid media. Compounds were dissolved in dimethylsulfoxide and tested in 10 doubling dilutions in the susceptibility assays. The organisms used in the assay were grown overnight on suitable agar media and then suspended in a liquid medium appropriate for the growth of the organism. The suspension was a 0.5 McFarland and a further 1 in 10 dilution was made into the same liquid medium to prepare the final organism suspension in 100 μL. Plates were incubated under appropriate conditions at 37° C. for 24 hrs prior to reading. The Minimum Inhibitory Concentration was determined as the lowest drug concentration able to reduce growth by 80% or more.

[2] = target: S. aureus (SAU) GyrB ATPase (Staphylococcus aureus, UniProt P0A0K8); assay: S. aureus GyrB ATPase inhibition, ammonium molybdate/malachite green phosphate detection assay; format: biochemical; details: read-out: S. aureus (SAU) GyrB ATPase % Inhibition, compound concentration 12.5 μM
S. aureus (SAU) GyrB ATPase, sequence (P0A0K8 whole entry): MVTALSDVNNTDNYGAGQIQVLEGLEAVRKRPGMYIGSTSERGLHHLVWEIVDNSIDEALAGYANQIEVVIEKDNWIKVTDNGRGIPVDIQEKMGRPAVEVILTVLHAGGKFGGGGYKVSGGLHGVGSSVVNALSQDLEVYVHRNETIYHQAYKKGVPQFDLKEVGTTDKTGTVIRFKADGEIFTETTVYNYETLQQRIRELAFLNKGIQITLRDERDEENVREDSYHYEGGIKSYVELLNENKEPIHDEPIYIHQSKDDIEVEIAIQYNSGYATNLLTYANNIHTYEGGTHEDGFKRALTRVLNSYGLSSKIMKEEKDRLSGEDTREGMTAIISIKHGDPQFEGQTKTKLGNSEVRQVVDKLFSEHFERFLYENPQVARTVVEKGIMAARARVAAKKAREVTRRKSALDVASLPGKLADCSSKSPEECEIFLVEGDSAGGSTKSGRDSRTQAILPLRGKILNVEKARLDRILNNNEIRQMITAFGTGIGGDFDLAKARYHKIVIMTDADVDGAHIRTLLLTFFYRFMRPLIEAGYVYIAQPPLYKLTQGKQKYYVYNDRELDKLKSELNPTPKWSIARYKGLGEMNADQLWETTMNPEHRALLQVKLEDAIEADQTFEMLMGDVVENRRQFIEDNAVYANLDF
S. aureus (SAU) GyrB ATPase, sequence (P0AES4 whole entry, further chain): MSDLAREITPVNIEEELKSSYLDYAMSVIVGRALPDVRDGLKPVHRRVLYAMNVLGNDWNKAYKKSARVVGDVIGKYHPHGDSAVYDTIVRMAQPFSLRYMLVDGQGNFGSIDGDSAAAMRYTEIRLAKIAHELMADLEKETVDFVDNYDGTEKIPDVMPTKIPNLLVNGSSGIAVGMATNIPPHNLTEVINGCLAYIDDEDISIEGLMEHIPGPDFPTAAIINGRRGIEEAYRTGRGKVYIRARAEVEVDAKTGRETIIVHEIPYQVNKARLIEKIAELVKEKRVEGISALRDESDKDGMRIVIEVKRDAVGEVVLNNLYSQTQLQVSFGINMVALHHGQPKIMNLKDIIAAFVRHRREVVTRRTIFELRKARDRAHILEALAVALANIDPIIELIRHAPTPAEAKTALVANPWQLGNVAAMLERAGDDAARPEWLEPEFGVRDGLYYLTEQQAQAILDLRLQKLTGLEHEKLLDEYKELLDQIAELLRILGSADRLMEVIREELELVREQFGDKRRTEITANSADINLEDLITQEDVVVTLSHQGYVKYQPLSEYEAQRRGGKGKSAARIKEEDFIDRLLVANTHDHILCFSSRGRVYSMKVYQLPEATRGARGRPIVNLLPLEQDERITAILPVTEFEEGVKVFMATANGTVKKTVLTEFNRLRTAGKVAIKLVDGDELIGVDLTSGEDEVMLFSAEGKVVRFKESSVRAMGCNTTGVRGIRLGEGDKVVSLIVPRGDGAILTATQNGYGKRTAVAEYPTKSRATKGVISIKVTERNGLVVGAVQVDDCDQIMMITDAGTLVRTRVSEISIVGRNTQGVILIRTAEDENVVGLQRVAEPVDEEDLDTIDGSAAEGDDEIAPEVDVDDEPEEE
Summary of the method: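 Phosphate from ATP hydrolysis (500 μM ATP) read as malachite green/molybdate absorbance at 650 nm after acid quench. Reaction: 1.25 nM S. aureus GyrB plus 1.25 nM E. coli GyrA, sheared DNA, Hepes pH 7.5 with Mg2+. IC50 fitted over 10 concentrations, normalised to DMSO (2%) and novobiocin (2 μM) controls.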

## CCCCNC(=O)c1nc(-c2ccc(NC(=O)NCC)nc2)sc1C(=O)O [Example 26, 4-[(Butylamino)carbonyl]-2-(6-{[(ethylamino)carbonyl]amino}pyridin-3-yl)-1,3-thiazole-5-carboxylic acid]
[1]
  MIC (lowest concentration reducing growth by 80% or more): 2.0 µg/mL (≈ 5.11 µM)
[2]
  inhibition at 12.5 µM: 70.5%
